Data set [1] concerns Permethrin Susceptible A. aegypti. Description: Wind tunnel bioassay, adult mosquitoes (Example 1). It is filed as in vivo. How it is done: (§1) In this bioassay, a wind tunnel bioassay was performed in New Mexico in July 2017. Aedes aegypti that were known to be resistant (single knockdown resistance (“KDR”) mutation) and susceptible to permethrin were used in the studies. The following solutions were applied to adult A. aegypti mosquitoes: 1) 1.5% abamectin; 2) 1.5% ivermectin; 3) 2% fenpropathrin; 4) a mixture of 2% fenpropathrin and 1.5% abamectin; 5) a mixture of 2% fenpropathrin and 1.5% abamectin; 6) a mixture of 2% fenpropathrin and 1.5% ivermectin; and 7) a mixture of 2% fenpropathrin and 1.5% ivermectin.
(§2) To determine if the mixtures provided unexpected results, the observed combined efficacy (“OCE”) was divided by the expected combined efficacy (“ECE”) wherein the expected ECE is calculated by the Abbott method: ECE=A+B−(AB/100), wherein ECE is the expected combined efficacy and in which A and B are the percent control given by the single active ingredients. If the ratio between the OCE of the mixture and the ECE of the mixture is greater than 1, then greater than expected interactions are present in the mixture. (Gisi, Synergistic Interaction of Fungicides in Mixtures, The American Phytopathological Society, 86:11, 1273-1279, 1996).

For data set [2], the system named is Permethrin Resistant A. aegypti (single KDR mutation). It is filed as in vivo, Aedes aegypti. As for the experimental part:
as §1, §2

For data set [3], the system named is Permethrin Resistant C. quinquefasciatus. Description: Wind tunnel bioassay, adult mosquitoes (Example 4). It is filed as in vivo, Culex quinquefasciatus. As for the experimental part:
In this bioassay, a wind tunnel bioassay was performed in New Mexico in March 2020. C. quinquefasciatus that were known to be resistant and susceptible to permethrin were used in the studies. The following solutions were applied to adult C. quinquefasciatus mosquitoes: 1) 5% permethrin; 2) a mixture of 5% permethrin and, 1.5% abamectin; 3) a mixture of 5% permethrin, 1.5% abamectin and 1% C8, 9, 10 fatty acids; 4) a mixture of 5% permethrin and 1.5% ivermectin; and 5) a mixture of 5% permethrin, 1.5% ivermectin and 1% C8, 9, 10 fatty acids. Percent mortality was recorded at 15 minutes, 1 hour, 24 hours and 48 hours.

For data set [4], the system named is Permethrin Susceptible C. quinquefasciatus. Kind of data set: Wind tunnel bioassay, adult mosquitoes (Example 4). It is filed as in vivo, Culex quinquefasciatus. As for the experimental part: In this bioassay, a wind tunnel bioassay was performed in New Mexico in March 2020. C. quinquefasciatus that were known to be resistant and susceptible to permethrin were used in the studies. […] Percent mortality was recorded at 15 minutes, 1 hour, 24 hours and 48 hours.

Data set [5] has as its system Permethrin Resistant C. quinquefasciatus. It is filed as in vivo. How it is done: (§3) If the ratio between the OCE of the mixture and the ECE of the mixture is greater than 1, then greater than expected interactions are present in the mixture. (Gisi, Synergistic Interaction of Fungicides in Mixtures, The American Phytopathological Society, 86:11, 1273-1279, 1996).
(§4) In this bioassay, a wind tunnel bioassay was performed in New Mexico in March 2020. C. quinquefasciatus that were known to be resistant and susceptible to permethrin were used in the studies. The following solutions were applied to adult C. quinquefasciatus mosquitoes: 1) 1.5% abamectin; 2) 1.5% ivermectin; 3) 5% pyrethrum; 4) a mixture of 5% pyrethrum and 1.5% abamectin; and 5) a mixture of 5% pyrethrum and 1.5% ivermectin. Percent mortality was recorded at 15 minutes, 1 hour, 24 hours and 48 hours.

For data set [6], the system named is Permethrin Susceptible C. quinquefasciatus. Description: Wind tunnel bioassay, adult mosquitoes (Example 5). Format: in vivo. How it is done:
as §3, §4

The results in this text go back to patent publication US11985976B2, “Mixture of mectins and pyrethroids and uses thereof” (Valent BioSciences LLC, priority 2020, dated 2024).

Values joined by “and” are separate entries in the source; they are usually repeats but may differ in a detail not shown here. Identical values can stand only once. Like-named read-outs stand apart in the source and are kept apart here.

With `CC1(C)C(C(=O)OC(C#N)c2cccc(Oc3ccccc3)c2)C1(C)C` (stereo not drawn) [2.0% fenpropathrin, fenpropathrin], the “% Mortality” value in data set [1] was 99.6%; in data set [2] it was 76% and 75.8%.
Turning to `CC1(C)C(C=C(Cl)Cl)C1C(=O)OCc1cccc(Oc2ccccc2)c1` (stereo not drawn) [5% permethrin, permethrin], the “% Mortality” value is listed as 78.8% in data set [3] (1 Hr); 0% in data set [3] (15 Min); 65% in data set [3] (24 Hr); 66.3% in data set [3] (48 Hr); 100% in data set [4] (1 Hr); 65% in data set [4] (15 Min). In addition, the “% Mortality” value in data set [4] (24 Hr) and in data set [4] (48 Hr) was 100% throughout.
For abamectin [1.5% abamectin], the “% Mortality” value is 100% in data set [1]; 26.3% in data set [5] (Example 5, 1 Hr); 0% in data set [5] (Example 5, 15 Min); 78.8% in data set [5] (Example 5, 24 Hr); 80% in data set [5] (Example 5, 48 Hr); 73.8% in data set [6] (1 Hr). The “% Mortality” value is 15% in data set [6] (15 Min); 91.3% in data set [6] (24 Hr); 92.5% in data set [6] (48 Hr); 91% and 91.3% in data set [2].
Consider ivermectin [1.5% ivermectin], for which the “% Mortality” value is 100% in data set [1]; 42.5% in data set [5] (Example 5, 1 Hr); 0% in data set [5] (Example 5, 15 Min); 88.8% in data set [5] (Example 5, 24 Hr); 91.3% in data set [5] (Example 5, 48 Hr); 62.5% in data set [6] (1 Hr). In addition, the “% Mortality” value in data set [6] (15 Min) was 5%; in data set [6] (24 Hr), 100%; in data set [6] (48 Hr), 100%; in data set [2] it was 64% and 62.9%.
